Results on 13 compounds are retold here after BindingDB's records for doi:10.1016/j.bmcl.2003.09.074 (Eli Lilly, 2003).

*1 amine or outer side, *2 acyl side, *3 side chain or, on linkers, in order; H or OH if unused. Where a SMILES comes first, the peptide text is derived from it. [ ]: non-standard residue; d: D form. The star is where a group is joined. Pro(3S,4R-(CH2)3) = O=C(O)[C@H]1NC[C@@H]2CCC[C@@H]21; Pyrazinecarbonyl = O=C(c1cnccn1)*; X1 = CCCC(N[*:1])C(=O)C(=O)[*:2]

Test [1] is described as follows: Binding affinity towards Protease using PNA assay in rats.
Test [2] in a line: Cytotoxic activity against Protease in […] Huh-7 cells.
Test [3] in a line: Cytotoxic activity against Protease in […] Huh-7 cells at 100 uM concentration.
A short description of test [4]: Cytotoxic activity against Protease in […] Huh-7 cells. The source holds these as a separate data set.

One may read the Ki as a dissociation constant, usually derived from enzyme kinetics or from competition with a known ligand. High values mean lower affinity, low ones higher affinity. The term IC50 denotes the concentration needed to halve the response being measured. Take `CCCC(NC(=O)[C@@H]1[C@H]2CCC[C@H]2CN1C(=O)[C@@H](NC(=O)[C@@H](NC(=O)c1cnccn1)C(C)C)C(C)C)C(=O)C(=O)N[C@@H](Cc1ccccc1)C(=O)O` (stereo partly drawn) [2-(3-{[(1S,5S,6R)-2-((S)-3-Methyl-2-{(S)-3-methyl-2-[(pyrazine-2-carbonyl)-amino]-butyrylamino}-butyryl)-octahydro-cyclopenta[c]pyrrole-1-carbonyl]-amino}-2-oxo-hexanoylamino)-3-phenyl-propionic acid] (Pyrazinecarbonyl-VV[Pro(3S,4R-(CH2)3)][X1]F-OH): in test [1], the affinity corresponds to a Ki of 68 nM. The IC50 in test [2] was > 100000 nM.
The like results for `CCCC(NC(=O)[C@@H]1[C@H]2CC[C@@H](OCOC)C2CN1C(=O)[C@@H](NC(=O)[C@@H](NC(=O)c1cnccn1)C(C)C)C(C)C)C(=O)C(=O)NC1CC1` (stereo partly drawn) [(1S,5S)-4-Methoxymethoxy-2-((S)-3-methyl-2-{(S)-3-methyl-2-[(pyrazine-2-carbonyl)-amino]-butyrylamino}-butyryl)-octahydro-cyclopenta[c]pyrrole-1-carboxylic acid ((R)-1-cyclopropylaminooxalyl-butyl)-amide] were, in that order, 415 nM and > 100000 nM.
For the compound `CCCC(NC(=O)[C@@H]1[C@H]2CC[C@@H](OCOC)C2CN1C(=O)[C@@H](NC(=O)[C@@H](NC(=O)c1cnccn1)C(C)C)C(C)C)C(=O)C(=O)N[C@@H](C)c1ccccc1` (stereo partly drawn) [(1S,5S)-4-Methoxymethoxy-2-((S)-3-methyl-2-{(S)-3-methyl-2-[(pyrazine-2-carbonyl)-amino]-butyrylamino}-butyryl)-octahydro-cyclopenta[c]pyrrole-1-carboxylic acid [(R)-1-((S)-1-phenyl-ethylaminooxalyl)-butyl]-amide], the Ki in test [1] came out at 332 nM. This compound also showed an IC50 in test [3] of 33000 nM.
Compound `CCCC(NC(=O)[C@@H]1[C@H]2CC=C[C@H]2CN1C(=O)[C@@H](NC(=O)[C@@H](NC(=O)c1cnccn1)C(C)C)C(C)C)C(=O)C(=O)NC1CC1` (stereo partly drawn) [(1S,5S,6R)-2-((S)-3-Methyl-2-{(S)-3-methyl-2-[(pyrazine-2-carbonyl)-amino]-butyrylamino}-butyryl)-1,2,3,3a,6,6a-hexahydro-cyclopenta[c]pyrrole-1-carboxylic acid (1-cyclopropylaminooxalyl-butyl)-amide] returned a Ki in test [1] of 90 nM. The IC50 in test [2] was > 100000 nM.
Regarding `CCCC(NC(=O)[C@@H]1[C@H]2CC=C[C@H]2CN1C(=O)[C@@H](NC(=O)[C@@H](NC(=O)c1cnccn1)C(C)C)C(C)C)C(=O)C(=O)N[C@@H](C)c1ccccc1` (stereo partly drawn) [(1S,5S,6R)-2-((S)-3-Methyl-2-{(S)-3-methyl-2-[(pyrazine-2-carbonyl)-amino]-butyrylamino}-butyryl)-1,2,3,3a,6,6a-hexahydro-cyclopenta[c]pyrrole-1-carboxylic acid [1-((S)-1-phenyl-ethylaminooxalyl)-butyl]-amide], the Ki in test [1] was determined as 880 nM.
`CCCC(NC(=O)[C@@H]1[C@H]2CC=C[C@H]2CN1C(=O)[C@@H](NC(=O)[C@@H](NC(=O)c1cnccn1)C(C)C)C(C)C)C(=O)C(=O)N[C@@H](C)CC` (stereo partly drawn) [(1S,5S,6R)-2-((S)-3-Methyl-2-{(S)-3-methyl-2-[(pyrazine-2-carbonyl)-amino]-butyrylamino}-butyryl)-1,2,3,3a,6,6a-hexahydro-cyclopenta[c]pyrrole-1-carboxylic acid [1-((S)-sec-butylaminooxalyl)-butyl]-amide]: the inhibition constant (Ki) in test [1] worked out at 625 nM.
`CCCC(NC(=O)[C@@H]1[C@H]2CCC(F)(F)[C@H]2CN1C(=O)[C@@H](NC(=O)[C@@H](NC(=O)c1cnccn1)C(C)C)C(C)C)C(=O)C(=O)NC1CC1` (stereo partly drawn) [(1S,5S,6R)-4,4-Difluoro-2-((S)-3-methyl-2-{(S)-3-methyl-2-[(pyrazine-2-carbonyl)-amino]-butyrylamino}-butyryl)-octahydro-cyclopenta[c]pyrrole-1-carboxylic acid (1-cyclopropylaminooxalyl-butyl)-amide] showed an inhibitory constant (Ki) in test [1] of 370 nM. In test [2], the IC50 is > 100000 nM.
The matching figures for `CCCC(NC(=O)[C@@H]1[C@H]2CC[C@H](F)[C@H]2CN1C(=O)[C@@H](NC(=O)[C@@H](NC(=O)c1cnccn1)C(C)C)C(C)C)C(=O)C(=O)NC1CC1` (stereo partly drawn) [(1S,5S,6R)-4-Fluoro-2-((S)-3-methyl-2-{(S)-3-methyl-2-[(pyrazine-2-carbonyl)-amino]-butyrylamino}-butyryl)-octahydro-cyclopenta[c]pyrrole-1-carboxylic acid ((S)-1-cyclopropylaminooxalyl-butyl)-amide]: 300 nM and > 100000 nM.
Consider `CCCC(NC(=O)[C@@H]1[C@H]2CC[C@H](F)[C@H]2CN1C(=O)[C@@H](NC(=O)[C@@H](NC(=O)c1cnccn1)C(C)C)C(C)C)C(=O)C(=O)N[C@@H](C)c1ccccc1` (stereo partly drawn) [(1S,5S,6R)-4-Fluoro-2-((S)-3-methyl-2-{(S)-3-methyl-2-[(pyrazine-2-carbonyl)-amino]-butyrylamino}-butyryl)-octahydro-cyclopenta[c]pyrrole-1-carboxylic acid [(S)-1-((S)-1-phenyl-ethylaminooxalyl)-butyl]-amide], for which the Ki in test [1] turned out to be 315 nM.
As for `CCCC(NC(=O)C1[C@H]2CCC(=O)[C@H]2CN1C(=O)[C@@H](NC(=O)[C@@H](NC(=O)c1cnccn1)C(C)C)C(C)C)C(=O)C(=O)Nc1ccccc1` (stereo partly drawn) [(3aR,5S)-2-((S)-3-Methyl-2-{(S)-3-methyl-2-[(pyrazine-2-carbonyl)-amino]-butyrylamino}-butyryl)-4-oxo-octahydro-cyclopenta[c]pyrrole-1-carboxylic acid (1-phenylaminooxalyl-butyl)-amide], in test [1], the Ki stood at 17 nM. Further, the IC50 in test [2] is > 100000 nM.
Consider `CCCC(NC(=O)C1[C@H]2CCC(=O)[C@H]2CN1C(=O)[C@@H](NC(=O)[C@@H](NC(=O)c1cnccn1)C(C)C)C(C)C)C(=O)C(=O)NC1CC1` (stereo partly drawn) [(5S,6R)-2-((S)-3-Methyl-2-{(S)-3-methyl-2-[(pyrazine-2-carbonyl)-amino]-butyrylamino}-butyryl)-4-oxo-octahydro-cyclopenta[c]pyrrole-1-carboxylic acid (1-cyclopropylaminooxalyl-butyl)-amide], for which the affinity in test [1], expressed as Ki, was 510 nM. The IC50 in test [2] was > 100000 nM.
In test [1], `CCCC(NC(=O)[C@@H]1[C@H]2CCC(F)(F)[C@H]2CN1C(=O)[C@@H](NC(=O)[C@@H](NC(=O)c1cnccn1)C(C)C)C(C)C)C(=O)C(=O)N[C@@H](Cc1ccccc1)C(=O)O` (stereo partly drawn) [(S)-2-(3-{[(1S,5S,6R)-4,4-Difluoro-2-((S)-3-methyl-2-{(S)-3-methyl-2-[(pyrazine-2-carbonyl)-amino]-butyrylamino}-butyryl)-octahydro-cyclopenta[c]pyrrole-1-carbonyl]-amino}-2-oxo-hexanoylamino)-3-phenyl-propionic acid] displayed a Ki of 176 nM. Moreover, the IC50 in test [4] was > 100000 nM.
With `CCCC(NC(=O)[C@@H]1[C@H]2CC[C@H](F)[C@H]2CN1C(=O)[C@@H](NC(=O)[C@@H](NC(=O)c1cnccn1)C(C)C)C(C)C)C(=O)C(=O)N[C@@H](Cc1ccccc1)C(=O)O` (stereo partly drawn) [(S)-2-((S)-3-{[(1S,5S,6R)-4-Fluoro-2-((S)-3-methyl-2-{(S)-3-methyl-2-[(pyrazine-2-carbonyl)-amino]-butyrylamino}-butyryl)-octahydro-cyclopenta[c]pyrrole-1-carbonyl]-amino}-2-oxo-hexanoylamino)-3-phenyl-propionic acid], in test [1], the affinity, expressed as Ki, was 82 nM. For the same compound, the IC50 in test [4] was > 100000 nM.
